Measured values: ChEMBL document CHEMBL4811316, “Larvicidal activity and in silico studies of cinnamic acid derivatives against Aedes aegypti (Diptera: Culicidae)” (Bioorg Med Chem, 2021)
Converted amounts (≈) assume the structure as drawn.

Experiment: Toxicity in Aedes aegypti assessed as modifications in anal papillae at 50 ug/ml
Details: dose 50 µg/ml

SMILES	Activity
CCOC(=O)/C=C/c1ccc(Cl)cc1 [ETHYL 3-(4-CHLOROPHENYL)ACRYLATE]	Toxic

Experiment: Toxicity in Aedes aegypti assessed as reduction in body mass at 50 ug/ml
Details: dose 50 µg/ml

SMILES	Activity
CCOC(=O)/C=C/c1ccc(Cl)cc1 [ETHYL 3-(4-CHLOROPHENYL)ACRYLATE]	Toxic

Experiment: Drug recovery in Aedes aegypti larval extract by HPLC analysis
Assay type: ADME
Details: 24 h

SMILES	Drug recovery
CCOC(=O)/C=C/c1ccc(Cl)cc1 [ETHYL 3-(4-CHLOROPHENYL)ACRYLATE]	8.2531 µg/mL
O=C(O)/C=C/c1ccc(Cl)cc1	2.7143 µg/mL

Experiment: Toxicity in Aedes aegypti assessed as translucent in anal papillae at 50 ug/ml
Details: dose 50 µg/ml

SMILES	Activity
CCOC(=O)/C=C/c1ccc(Cl)cc1 [ETHYL 3-(4-CHLOROPHENYL)ACRYLATE]	Toxic

Experiment: Larvicidal activity against Aedes aegypti 4th instar larvae measured after 48 hrs
Assay type: ADME
Details: not given

SMILES	LC10	LC50	LC90
CCOC(=O)/C=C/C=C/c1ccccc1	10 µg/mL (≈ 49.4 µM)	19.7 µg/mL (≈ 97.4 µM)	38.8 µg/mL (≈ 192 µM)
O=C(O)/C=C/c1ccc(Br)cc1	31.7 µg/mL (≈ 140 µM)	54.4 µg/mL (≈ 240 µM)	93.2 µg/mL (≈ 410 µM)
O=C(O)/C=C/c1ccc([N+](=O)[O-])cc1	29 µg/mL (≈ 150 µM)	37.1 µg/mL (≈ 192 µM)	47.5 µg/mL (≈ 246 µM)
CCOC(=O)/C=C/c1ccc(Cl)cc1Cl [ETHYL 3-(2,4-DICHLOROPHENYL)ACRYLATE]	10.2 µg/mL (≈ 41.6 µM)	23.6 µg/mL (≈ 96.3 µM)	54.8 µg/mL (≈ 224 µM)
CCOC(=O)/C=C/c1ccc(OC)cc1 [4-METHOXY ETHYL CINNAMATE]	18.2 µg/mL (≈ 88.2 µM)	26.9 µg/mL (≈ 130 µM)	39.7 µg/mL (≈ 192 µM)
CCOC(=O)/C=C/c1ccc(Cl)cc1 [ETHYL 3-(4-CHLOROPHENYL)ACRYLATE]	3.5 µg/mL (≈ 16.6 µM)	8.3 µg/mL (≈ 39.4 µM)	19.7 µg/mL (≈ 93.5 µM)
CCOC(=O)/C=C/c1ccc(F)cc1	24 µg/mL (≈ 124 µM)	32.2 µg/mL (≈ 166 µM)	43.2 µg/mL (≈ 222 µM)
CCOC(=O)/C=C/c1ccc(C(F)(F)F)cc1	11.1 µg/mL (≈ 45.5 µM)	21.6 µg/mL (≈ 88.4 µM)	42.2 µg/mL (≈ 173 µM)
COP(=S)(OC)Oc1ccc(Sc2ccc(OP(=S)(OC)OC)cc2)cc1 [TEMEFOS]	1.8 µg/mL (≈ 3.86 µM)	4.4 µg/mL (≈ 9.43 µM)	10.4 µg/mL (≈ 22.3 µM)
O=C(O)/C=C/c1ccc(Cl)cc1	16.2 µg/mL (≈ 88.7 µM)	26 µg/mL (≈ 142 µM)	41.8 µg/mL (≈ 229 µM)
O=C(O)/C=C/c1ccc(C(F)(F)F)cc1	87.7 µg/mL (≈ 406 µM)	97.6 µg/mL (≈ 452 µM)	108.6 µg/mL (≈ 502 µM)
CCOC(=O)/C=C/c1ccc([N+](=O)[O-])cc1	21.3 µg/mL (≈ 96.3 µM)	35.7 µg/mL (≈ 161 µM)	60 µg/mL (≈ 271 µM)
CCOC(=O)/C=C/c1ccc(OC(F)(F)F)cc1	19.6 µg/mL (≈ 75.3 µM)	31.3 µg/mL (≈ 120 µM)	50 µg/mL (≈ 192 µM)
CCOC(=O)/C=C/c1ccccc1 [ETHYL CINNAMATE]	30.4 µg/mL (≈ 173 µM)	35.6 µg/mL (≈ 202 µM)	41.7 µg/mL (≈ 237 µM)
CCOC(=O)/C=C/c1ccc(Br)cc1	18.9 µg/mL (≈ 74.1 µM)	25.1 µg/mL (≈ 98.4 µM)	33.3 µg/mL (≈ 131 µM)

Experiment: Toxicity in Aedes aegypti assessed as appearance of dark spots in thorax region at 50 ug/ml
Details: dose 50 µg/ml

SMILES	Activity
CCOC(=O)/C=C/c1ccc(Cl)cc1 [ETHYL 3-(4-CHLOROPHENYL)ACRYLATE]	Toxic

Experiment: Larvicidal activity against Aedes aegypti assessed as mortality at 45 ug/ml measured after 24 hrs relative to control
Assay type: ADME
Details: at 45 µg/mL

SMILES	mortality
CCOC(=O)/C=C/C=C/c1ccccc1	93.3%
O=C(O)/C=C/c1ccc(Br)cc1	36.7%
CCOC(=O)/C=C/c1ccc(C(C)(C)C)cc1	40%
CCOC(=O)/C=C/c1ccc(C#N)cc1	8.3%
O=C(O)/C=C/c1ccc([N+](=O)[O-])cc1	86.7%
CCOC(=O)/C=C/c1ccc(Cl)cc1Cl [ETHYL 3-(2,4-DICHLOROPHENYL)ACRYLATE]	86.7%
O=C(O)/C=C/c1ccccc1 [CINNAMIC ACID]	0%
COc1ccc(/C=C/C(=O)O)cc1 [4-METHOXYCINNAMIC ACID]	0%
CCOC(=O)/C=C/c1ccc(OC)cc1 [4-METHOXY ETHYL CINNAMATE]	80%
CCOC(=O)/C=C/c1ccc(Cl)cc1 [ETHYL 3-(4-CHLOROPHENYL)ACRYLATE]	100%
CCOC(=O)/C=C/c1ccc(F)cc1	83.3%
CCOC(=O)/C=C/c1ccc(C(F)(F)F)cc1	98.3%
O=C(O)/C=C/c1ccc(Cl)cc1	95%
O=C(O)/C=C/c1ccc(C(F)(F)F)cc1	0%
CCOC(=O)/C=C/c1ccc(O)cc1 [ETHYL P-COUMARATE]	0%
CCOC(=O)/C=C/c1ccc([N+](=O)[O-])cc1	98.3%
CCOC(=O)/C=C/c1ccc(OC(F)(F)F)cc1	93.3%
CCOC(=O)/C=C/c1ccccc1 [ETHYL CINNAMATE]	95%
CCOC(=O)/C=C/c1ccc(Br)cc1	100%

Experiment: Toxicity in Aedes aegypti assessed as appearance of dark spots in siphon region at 50 ug/ml
Details: dose 50 µg/ml

SMILES	Activity
CCOC(=O)/C=C/c1ccc(Cl)cc1 [ETHYL 3-(4-CHLOROPHENYL)ACRYLATE]	Toxic

Experiment: Larvicidal activity against Aedes aegypti assessed as mortality at 100 ug/ml measured after 24 hrs relative to control
Assay type: ADME
Details: at 100 µg/mL

SMILES	mortality
CCOC(=O)/C=C/c1ccc(N(C)C)cc1	6.7%
O=C(O)/C=C/c1ccc(Br)cc1	93.3%
O=C(O)/C=C/c1ccc(OC(F)(F)F)cc1	40%
O=C(O)/C=C/c1ccc([N+](=O)[O-])cc1	96.7%
O=C(O)/C=C/c1ccccc1 [CINNAMIC ACID]	28.3%
O=C(O)/C=C/c1ccc(Cl)cc1	100%
O=C(O)/C=C/c1ccc(C(F)(F)F)cc1	56.7%
O=C(O)/C=C/c1ccc(F)cc1	0%

Experiment: Retention time of the compound
Assay type: physicochemical
Details: not given

SMILES	Retention_time
CCOC(=O)/C=C/c1ccc(Cl)cc1 [ETHYL 3-(4-CHLOROPHENYL)ACRYLATE]	3.61 min
O=C(O)/C=C/c1ccc(Cl)cc1	3.32 min

Experiment: Drug recovery in Aedes aegypti supernatant measured after 24 hrs by HPLC analysis
Assay type: ADME
Details: not given

SMILES	Drug recovery
CCOC(=O)/C=C/c1ccc(Cl)cc1 [ETHYL 3-(4-CHLOROPHENYL)ACRYLATE]	10.8746 µg/mL
O=C(O)/C=C/c1ccc(Cl)cc1	3.8191 µg/mL

Experiment: Toxicity in Aedes aegypti assessed as rigid and elongated exoskeleton at 50 ug/ml
Details: dose 50 µg/ml

SMILES	Activity
CCOC(=O)/C=C/c1ccc(Cl)cc1 [ETHYL 3-(4-CHLOROPHENYL)ACRYLATE]	Toxic

Experiment: Toxicity in Aedes aegypti assessed as abdomen curvature at 50 ug/ml
Details: dose 50 µg/ml

SMILES	Activity
CCOC(=O)/C=C/c1ccc(Cl)cc1 [ETHYL 3-(4-CHLOROPHENYL)ACRYLATE]	Toxic

Experiment: Toxicity in Aedes aegypti assessed as appearance of dark spots in intestine region at 50 ug/ml
Assay type: tissue-based
Details: dose 50 µg/ml

SMILES	Activity
CCOC(=O)/C=C/c1ccc(Cl)cc1 [ETHYL 3-(4-CHLOROPHENYL)ACRYLATE]	Toxic
